From paper PMC7249120, “Hybrid Imaging Agents for Pretargeting Applications Based on Fusarinine C—Proof of Concept” (Molecules, 2020)

Tests used:
[1] = test system: TCO-alendronate pre-treated mice (bone); assay: PET/CT and optical imaging in the alendronate-TCO bone pretargeting model; type: in vivo, BALB/c mice; details: TCO-alendronate pre-treated mice vs alendronate alone; PET/CT 1 h p.i., OI of excised bones 24 h p.i.
Procedure: For the proof of concept of pretargeting in vivo a model described by Yazdani et al. was applied, based on TCO-modified alendronate for bone targeting. For preparation of TCO–alendronate, briefly, 20 mg sodium alendronate trihydrate (Sigma Aldrich) was dissolved in 400 µL 0.1N sodium-bicarbonate solution pH 8.5. Then 0.6 mL TCO–NHS ester (Click chemistry tools, Scottsdale, AZ, USA), 20 mg/mL in DMSO, were slowly added to the solution and stirred overnight in the dark, followed by freeze drying. As a control the same preparation was prepared, replacing TCO–NHS solution by the same volume of DMSO. For injection in mice the residue was dissolved in water and adjusted to pH 7 (30 mM).
MicroPET/CT images were acquired with an Albira PET/SPECT/CT small animal imaging system (Bruker Biospin Corporation, Woodbridge, CT, USA). […] After reconstruction, acquired data was viewed and analyzed with PMOD software (PMOD Technologies Ltd., Zurich, Switzerland).
Near-infrared in vivo fluorescence imaging was performed with an In-Vivo MS FX PRO small animal imaging system (Bruker Biospin Corporation, Woodbridge, CT, USA) after the PET/CT investigation. […] An appropriate filter set (λex = 710 nm and λem = 790 nm) was used for acquiring the fluorescence of the IRDye800CW-conjugates ex vivo. […] Acquired images were analyzed using Bruker MI SE software (Bruker Biospin Corporation, Woodbridge, CT, USA).

[2] = test system: CD20-expressing Raji cells pre-treated with Rituximab(RTX)–TCO; assay: Cell binding studies on Raji cells pre-treated with RTX-TCO or non-modified RTX; type: cell-based, human; design: concentration or dose not given beside the values; details: radioligand 30 min, 37 °C
Procedure: CD20-expressing Raji cells ([…] lymphoblast-like B-lymphocyte cells) were obtained from the American Type Culture Collection (ATCC, Manassas, Virginia, USA). The cells were cultured in tissue culture flasks (Cellstar; Greiner Bio-One, Kremsmuenster, Austria) using RPMI-1640 medium with 10% (v/v) fetal bovine serum (FBS) as supplement (Invitrogen Corporation, Lofer, Austria). For cell binding studies 10 × 10^6 cells were washed twice with fresh medium, diluted with PBS to a final concentration of 1 × 10^6 cells per mL and 500 µL of cell suspension was transferred to Eppendorf tubes. Hereafter, 50 µL of RTX–TCO or non-modified RTX as negative control (both 0.5 µM) was added and the cell suspension was maintained at 37 °C under gentle shaking. After 1 h the suspension was centrifuged (2 min, 11 × 10^3 rcf), the supernatant was discarded and the cells were washed twice with 600 µL PBS and finally resuspended with 450 µL PBS. Subsequently 50 µL of the radioligand solution (22 nM) was added and the suspension was incubated for 30 min at 37 °C. After centrifugation and two washing steps with 600 µL PBS, the cells were resuspended in 500 µL PBS and transferred to polypropylene vials for gamma counter measurement followed by calculation of cell-associated activity in comparison to the total activity applied (n = 3, six replicates).

[3] = type: physicochemical; details: pH 7.4
Procedure: To determine the hydrophilicity the distribution of the ^68Ga-labeled conjugates between an organic (octanol) and aqueous (PBS) layer was assessed. Aliquots (50 µL) of the ^68Ga-labeled tracers (~5 µM) were diluted in 1 mL of octanol/PBS (1:1, v/v) and the mixture was vortexed at 1400 rpm (MS 3 basic vortexer, IKA, Staufen, Germany) for 15 min at RT. Subsequently the mixture was centrifuged for 2 min at 4500 rpm followed by measuring aliquots (50 µL) of both layers in the gamma counter (Wizard^2 3”, Perkin Elmer, Waltham, MA, USA). LogD was calculated using Microsoft Excel (n = 3, six replicates).

[4] = design: species or system BALB/c mice; details: mouse, in vivo, iv
Procedure: Biodistribution studies of the FSC-based hybrid imaging agents radiolabeled with Gallium-68 were performed using healthy five-week-old female BALB/c mice (Charles River Laboratories, Sulzfeld, Germany). Animals (n = 3) were injected via lateral tail vein with 1 nmol of conjugate and a total activity of approximately 6 MBq. Mice were sacrificed by cervical dislocation 1 h p.i. followed by collection of the main organs and tissue, subsequent gamma counter measurement and calculation of the percentage of injected activity per gram tissue (% IA/g).

SMILES: C/C1=C/C(=O)N(O)CCC[C@H](NC(=O)CCOCCOCCOCCOCCOCCC(=O)NCc2ccc(-c3nncnn3)cc2)C(=O)OCC/C(C)=C\C(=O)N(O)CCC[C@H](NC(=O)CCOCCOCCOCCOCCOCCC(=O)NCc2ccc(-c3nncnn3)cc2)C(=O)OCC/C(C)=C\C(=O)N(O)CCC[C@H](NC(=O)CCCCC[N+]2=C(/C=C/C3=C(Oc4ccc(S(=O)(=O)O)cc4)C(=C/C=C4/N(CCCCS(=O)(=O)O)c5ccc(S(=O)(=O)O)cc5C4(C)C)/CCC3)C(C)(C)c3cc(S(=O)(=O)[O-])ccc32)C(=O)OCC1 [IRDye800CW-FSC-(PEG5-Tz)2]
- Bone uptake in PET/CT and optical imaging [1]: high accumulation in joints and spine
- Cell binding (cell-associated activity of total activity applied) [2]: 4.59 ± 1.45%
- logD [3]: -2.46 ± 0.09

SMILES: CC(=O)N[C@H]1CCCN(O)C(=O)/C=C(/C)CCOC(=O)[C@@H](NC(=O)CCOCCOCCOCCOCCOCCC(=O)NCc2ccc(-c3nncnn3)cc2)CCCN(O)C(=O)/C=C(/C)CCOC(=O)[C@@H](NC(=O)CCCCC[N+]2=C(/C=C/C3=C(Oc4ccc(S(=O)(=O)O)cc4)C(=C/C=C4/N(CCCCS(=O)(=O)O)c5ccc(S(=O)(=O)O)cc5C4(C)C)/CCC3)C(C)(C)c3cc(S(=O)(=O)[O-])ccc32)CCCN(O)C(=O)/C=C(/C)CCOC1=O [IRDye800CW-MAFC-PEG5-Tz]
- Cell binding (cell-associated activity of total activity applied) [2]: 2.88 ± 0.53%
- logD [3]: -2.4 ± 0.05

SMILES: C/C1=C/C(=O)N(O)CCC[C@H](NC(=O)CCOCCOCCOCCOCCOCCC(=O)NCc2ccc(-c3nncnn3)cc2)C(=O)OCC/C(C)=C\C(=O)N(O)CCC[C@H](NC(=O)CCOCCOCCOCCOCCOCCC(=O)NCc2ccc(-c3nncnn3)cc2)C(=O)OCC/C(C)=C\C(=O)N(O)CCC[C@H](NC(=O)CCCCC[N+]2=C(/C=C/C=C/C=C3/N(C)c4ccc(S(=O)(=O)O)cc4C3(C)C)C(C)(C)c3cc(S(=O)(=O)[O-])ccc32)C(=O)OCC1 [SulfoCy5-FSC-(PEG5-Tz)2]
- Cell binding (cell-associated activity of total activity applied) [2]: 5.91 ± 1.62%
- logD [3]: -2.29 ± 0.1

SMILES: CC(=O)N[C@H]1CCCN(O)C(=O)/C=C(/C)CCOC(=O)[C@@H](NC(=O)CCOCCOCCOCCOCCOCCC(=O)NCc2ccc(-c3nncnn3)cc2)CCCN(O)C(=O)/C=C(/C)CCOC(=O)[C@@H](NC(=O)CCCCC[N+]2=C(/C=C/C=C/C=C3/N(C)c4ccc(S(=O)(=O)O)cc4C3(C)C)C(C)(C)c3cc(S(=O)(=O)[O-])ccc32)CCCN(O)C(=O)/C=C(/C)CCOC1=O [SulfoCy5-MAFC-PEG5-Tz]
- Cell binding (cell-associated activity of total activity applied) [2]: 3.09 ± 0.58%
- logD [3]: -2.85 ± 0.08

SMILES: CC(=O)N[C@H]1CCCN(O)C(=O)/C=C(/C)CCOC(=O)[C@@H](NC(=O)CCOCCOCCOCCOCCOCCC(=O)NCc2ccc(-c3nncnn3)cc2)CCCN(O)C(=O)/C=C(/C)CCOC(=O)[C@@H](NC(=O)CCCCC[N+]2=C(/C=C/C3=CC(=C/C=C4/N(C)c5ccc(S(=O)(=O)O)cc5C4(C)C)/CCC3)C(C)(C)c3cc(S(=O)(=O)[O-])ccc32)CCCN(O)C(=O)/C=C(/C)CCOC1=O [SulfoCy7-MAFC-PEG5-Tz]
- Organ activities compared with SulfoCy5 and IRDye800CW counterparts [4]: higher activities in all organs
- Cell binding (cell-associated activity of total activity applied) [2]: 4.12 ± 0.88%
- logD [3]: -1.92 ± 0.05
